Nine compounds from patent US4985409A, “Adenosine derivatives and pharmaceutical composition thereof” (Nippon Zoki Pharmaceutical Co., Ltd., priority 1989, dated 1991) can be followed below.

Each structure is given as a SMILES string.

For data set [1], the system named is spontaneously hypertensive rats (SHR). Nature of the data set: Antihypertensive activity (blood pressure in spontaneously hypertensive rats, oral). In kind it is in vivo. Conditions: mean ±S.E. The procedure:
The test compounds, which were dissolved or suspended in 0.5% C.M.C. aqueous solution, were orally administered to groups of 3 spontaneously hypertensive rats (SHR), 33 to 36 weeks old, which were fasted for 20 hours before drug administration. Blood pressure was measured before and 2 hours after the administration of the test drug.

Data set [2] in a line: Acute toxicity test (oral LD50, death rate for 14 days). Conditions: mouse, in vivo, ddY-strain male mice. The procedure:
The test compounds of the present invention, which were dissolved or suspended in 0.5% carboxymethylcellulose (C.M.C.) aqueous solution, were orally administered to groups of 2 to 5 ddY-strain male mice, and the LD50 values were calculated based on the death rate for 14 days thereafter.

The mark [3] stands for this setting: Rattus norvegicus, 2 hours after oral 3 mg/kg, read-out: Blood pressure (Decrease %).
Where [4] appears, read: Rattus norvegicus, 2 hours after oral 0.3 mg/kg, read-out: Blood pressure (Decrease %).

Consider `CO[C@@H]1[C@H](O)[C@@H](CO)O[C@H]1n1cnc2c(NCc3cccc4ccccc34)ncnc21` [Compound 8, N^6-(1-naphthyl)methyl-2'-O-methyladenosine], for which the “Blood pressure 2 hrs” value in data set [1] (2 hours after oral 3 mg/kg) is 140 ± 7 mmHg. In data set [1] (setting [3]), the inhibition in vivo at 3 mg/kg came out at 36.2 ± 5.7%. Moreover, in data set [2], the LD50 (in general, the dose at which mortality reaches 50%) at 336 h was found to be 230 mg/kg.

Regarding `CO[C@@H]1[C@H](O)[C@@H](CO)O[C@H]1n1cnc2c(NC3CCOc4ccccc43)ncnc21` (stereo partly shown) [Compound 24, N^6-(4-chromanyl)-2'-O-methyladenosine], in data set [1] (2 hours after oral 1 mg/kg), the “Blood pressure 2 hrs” value is 98 ± 15 mmHg. In addition, the inhibition in vivo at 1 mg/kg in data set [1] (Rattus norvegicus, 2 hours after oral 1 mg/kg, read-out: Blood pressure (Decrease %)) is 55.4 ± 5.6%. The LD50 at 336 h in data set [2] turned out to be 250 mg/kg.

In the case of `CO[C@@H]1[C@H](O)[C@@H](CO)O[C@H]1n1cnc2c(NCC(c3ccccc3)c3ccccc3)ncnc21` [Compound 5, N^6-(2,2-diphenylethyl)-2'-O-methyladenosine], the “Blood pressure 2 hrs” value in data set [1] (2 hours after oral 3 mg/kg) came to 148 ± 19 mmHg. Also, the inhibition in vivo at 3 mg/kg in data set [1] (setting [3]) was 30 ± 8.4%.

Turning to `CO[C@@H]1[C@H](O)[C@@H](CO)O[C@H]1n1cnc2c(NC3Cc4ccccc4C3)ncnc21` [Compound 12, N^6-(2,3-dihydro-1H-indene-2-yl)-2'-O-methyladenosine], in data set [1] (2 hours after oral 10 mg/kg), the “Blood pressure 2 hrs” value came out at 164 ± 5 mmHg. Also, the inhibition in vivo at 10 mg/kg in data set [1] (Rattus norvegicus, 2 hours after oral 10 mg/kg, read-out: Blood pressure (Decrease %)) was found to be 22.7 ± 2.2%.

Regarding `CO[C@@H]1[C@H](O)[C@@H](CO)O[C@H]1n1cnc2c(NC3CCCc4ccccc43)ncnc21` (stereo partly shown) [Compound 16, N^6-(1-tetrahydronaphthyl)-2'-O-methyladenosine], the “Blood pressure 2 hrs” value in data set [1] (2 hours after oral 3 mg/kg) came out at 109 ± 9 mmHg. Besides, the inhibition in vivo at 3 mg/kg in data set [1] (setting [3]) is 47.2 ± 4.2%. Besides, the 50% lethal dose (LD50) at 336 h in data set [2] turned out to be 230 mg/kg.

Turning to `CO[C@@H]1[C@H](O)[C@@H](CO)O[C@H]1n1cnc2c(NC3CCc4ccccc4C3)ncnc21` (stereo partly shown) [Compound 17, N^6-(2-tetrahydronaphthyl)-2'-O-methyladenosine], the “Blood pressure 2 hrs” value in data set [1] (2 hours after oral 3 mg/kg) came out at 187 ± 7 mmHg. Also, the inhibition in vivo at 3 mg/kg in data set [1] (setting [3]) was 14.5 ± 1.9%.

As to `CO[C@@H]1[C@H](O)[C@@H](CO)O[C@H]1n1cnc2c(NC3CCCCC3)ncnc21` [Compound 2, N^6-cyclohexyl-2'-O-methyladenosine], the “Blood pressure 2 hrs” value in data set [1] (2 hours after oral 0.3 mg/kg) is recorded as 129 ± 8 mmHg. Also, the inhibition in vivo at 0.3 mg/kg in data set [1] (setting [4]) came to 37.5 ± 1.7%.

Consider `CO[C@@H]1[C@H](O)[C@@H](CO)O[C@H]1n1cnc2c(NC3CCCC3)ncnc21` [Compound 1, N^6-cyclopentyl-2'-O-methyladenosine], for which the “Blood pressure 2 hrs” value in data set [1] (2 hours after oral 0.3 mg/kg) was determined as 98 ± 8 mmHg. The inhibition in vivo at 0.3 mg/kg in data set [1] (setting [4]) worked out at 56.5 ± 5.5%.

On to `CO[C@@H]1[C@H](O)[C@@H](CO)O[C@H]1n1cnc2c(NC3CCc4ccccc43)ncnc21` (stereo partly shown) [Compound 11, N^6-(2,3-dihydro-1H-indene-1-yl)-2'-O-methyladenosine], for which the “Blood pressure 2 hrs” value in data set [1] (2 hours after oral 3 mg/kg) turned out to be 133 ± 21 mmHg. In data set [1] (setting [3]), the inhibition in vivo at 3 mg/kg was determined as 41.3 ± 7%. The compound also yielded an LD50 at 336 h in data set [2] of 450 mg/kg.
